Measured values published in patent US8741299B2, “Method for treating pathologies associated with hypoxia using MIF inhibitors” (The Feinstein Institute for Medical Research, priority 2011, dated 2014).
Entries after “also recorded” stand apart in the source; their conditions may differ.

Columns and labels:
[1] = system: Human lung fibroblasts (CCL-210); experiment: Hypoxia-induced proliferation of human lung fibroblasts (BrdU incorporation, cell counts); assay type: cell-based
Description: Cell culture studies: Human lung fibroblasts (CCL-210) were purchased from American Type Culture Collection (ATCC, Manassas, Va.). Cells were cultured in Eagle Minimum Essential Medium (EMEM) (ATCC, Manassas, Va.) with 10% fetal bovine serum (FBS) at 37′C, 5% CO2. The cells were subcultured using standard procedures and were used for experiment during passages 3 to 10.
(§1) Cell proliferation assessments: 5-bromo-2-deoxyuridine (BrdU) incorporation measured by a commercially available kit (Calbiochem, EMD Chemical Inc., Gibbstown, N.J.) was used to quantify the fibroblast proliferation, BrdU is incorporated into the newly synthesized DNA of replicating cells (during the S phase of the cell cycle). The assay was performed according to the manufacturer's instructions. […] BrdU incorporated in newly synthesized DNA was detected with a BrdU antibody using chemiluminescence for quantification. […]
Hypoxia in vitro: A modular incubator chamber (Billups-Rothenberg Inc., Del Mar, Calif.) was used for the cell hypoxia studies. To induce hypoxia, the chamber was tightly closed and flushed with a gas mixture consisting of 95% nitrogen and 5% CO2 until the desired ambient oxygen concentration of 1% was reached as measured using an oxygen sensor (BioSpherix, Lacona, N.Y.). […]
Cell proliferation, under both normoxic and hypoxic conditions, was then determined using the methods described above.

CCL-210 cells = experiment: Lactate dehydrogenase release into the medium of treated cells (cytotoxicity); assay type: cell-based, human; details: at the concentration used (100 μM elsewhere in the source), data not shown
[2] = system: primary lung fibroblasts (mif-/-); experiment: Proliferation of primary mif-/- lung fibroblasts in hypoxia with conditioned medium from hypoxic mif+/+ cells; assay type: cell-based, mouse; details: 1% oxygen; vs carrier DMSO
Description: Primary lung fibroblasts from MIF knockout (mif−/−) or their counterpart wild type C57BL6 mice (mif+/+) were established by using outgrowth from lung explants (36). Briefly, mouse lungs were removed using aseptic technique, carefully dissected free of connective tissue and fat, and cut into small pieces (<1 mm). These lung tissue pieces were cultured in a dish containing EMEM, 10% FBS, and 1% penicillin/streptomycin, at 37° C., 5% CO2 in air. Medium was changed twice a week. After about two weeks, fibroblasts had reached approximately 80% confluence. The fibroblasts were removed by trypsin and filtered using a sterilized 100-μm nylon cell strainer (Falcon) to remove any remaining tissue pieces. […]
as §1, with “cycle).” for “cycle). The assay was performed according to the manufacturer's instructions.”
To further examine the role of MIF in hypoxia-induced fibroblast proliferation, the ability of primary lung fibroblasts (mif^−/− and mir^+/+) cultured under normoxic and hypoxic conditions for 24 hrs, was assessed. […]

C57BL6 mice = experiment: Mouse hypoxia model of pulmonary vascular remodeling and hypertension; assay type: in vivo
From the text: Hypoxia in vivo: C57BL6 mice (male, 8˜10 weeks old) were purchased from Taconic Farms Inc. (Hudson, N.Y.). All the animals were housed in a pathogen-free environment, under standard light and dark cycles, with free access to food and water until they were used for the experiments. All experiments involving animals were reviewed and approved by Institutional Animal Care and Use Committee of The Feinstein Institute for Medical Research. An animal hypoxia chamber system (BioSpherix, Lacona, N.Y.) was used for the in vivo studies. […] Mice were randomly divided into 4 groups and treated with normoxia, or hypoxia for 3, 10, or 42 days. At the time of euthanasia, animals were anesthetized with isoflurane and 100% oxygen. A 26 gauge needle connected to a transducer was introduced into the right ventricular trans-diaphragmatically. The right ventricular (RV) pressure was measured and recorded using a computerized hemodynamic recording system (HAEMODYN, Harvard Apparatus, Mass.). After the RV pressure measurement, blood was taken from the RV and plasma was stored in −80° C. for MIF measurement. The mice were then euthanized by exsanguination. The hearts were removed, dissected and weighed. The heart weights were expressed as a ratio of the weight of the right ventricle to the weight of the left ventricle+septum (RV/S+LV). The lung was also collected; the left side was used for measure MIF mRNA expression, and the right side fixed, at inflation, in 4% paraformaldehyde for lung vascular histology study. […] Immediately after sub-cutaneous pump implantation on the dorsum of the animals, the mice were put into hypoxia chamber undergoing 10% normobaric hypoxia for 10 days or 21 days. At the indicated times, the RV pressure, heart weight (RV/S+LV), and vascular changes were determined in each group using the methods described above. Vascular wall thickness: Lung tissues were immunostained using anti α-smooth muscle actin (α-SMA) antibody (Abcam Inc, Cambridge Mass.) to reveal the muscular layer of the vessel wall. External diameter (ED) and internal diameter (ID) of 50 alveolar vessels (with ED of 40 to 100 μm) per animal were determined and recorded, by an independent investigator blinded to the sample's origin. The total wall thickness (WT) was measured as the mean distance between the internal and the external diameter. The percentage wall thickness (WT %) was calculated by the formula: WT %=2×WT/ED×100%. (38).

mouse brain = experiment: MicroPET 18F-FDG uptake in the brain of hypoxic mice; assay type: in vivo
From the text: MicroPET scanning MicroPET scanning can be conducted using an appropriate system, such as Siemen's Inveon. The Inveon is a dedicated small animal positron emission tomography (PET) scanner housed in the Feinstein Institute for Medical Research. This scanner is an ultra-high resolution tomography that includes a built-in transmission source used for the quantitative assessment of radiotracer binding. The use of ^18FDG is preferred.
Scanning methods: All animals being scanned are housed in the Center for Comparative Physiology, within the Feinstein Institute. Animals receive an intraperitoneal (i.p.) injection of ^18FDG (between 1-2 mCi). […] Significant differences in absolute and region-of-interest to whole-brain relative metabolic glucose uptake are analyzed using student t-tests and repeated measures ANOVA.
Further developing these studies, it is herein disclosed that inhibition of MIF prevented altered 2-deoxy-2-(^18F)fluoro-D-glucose (^18F-FDG) uptake in the brain of hypoxic mice (FIG. 8). […] In this study, a standardized uptake value (SUV) (56) was used, a simple semi-quantitative index, calculated by measuring the activity concentration in a region of interest (ROI) during a short-duration (10 min) static scan acquired 60 min after injection and then normalized for the injected dose or weight of the animal. […]

mice = experiment: Clock maze task (spatial working memory) in hypoxic mice; assay type: in vivo, mouse; details: hypoxia, ISO-92 delivered to the dorsal hippocampus via osmotic pumps, n=4
Description: Clock maze: A navigational test is used to measure spatial working memory, modified from Deacon and Rawlins (2002). The apparatus (termed “clock maze”) is a circular base platform (diameter, 85 cm) surrounded by a clear wall (30 cm high), sealed to the base by aquarium sealant to make it waterproof. Cold water (20° C.±1° C.) is added to a depth of 2 cm, sufficient to wet the underside of the belly of mice. The perimeter wall is pierced by 12 holes, 4 cm in diameter, arranged equidistantly around the circumference so that they are 23 cm apart. The lower edge of each hole is 3 cm above the maze floor, that is, at mouse head level. Eleven of these tubes were sealed with black plugs, flush with the internal pool wall surface; one is open and led to an escape pipe, which is 4 cm in diameter, made of black flexible plastic. Thus, from within the clock maze, the true exit looks similar to the decoys, even to the human eye. […] The animal is placed facing one of the long sides in a semi-random fashion (not more than 3 consecutive times the same way) and the time taken to enter the open tube was recorded by software (Ethovision). […] The latency to reach the target is recorded by software (Ethovision) with a maximum of 60 sec for each trial. […]
The navigational test that measured spatial working memory was modified from Deacon and Rawlins (2002). […]

[3] = 1.8 mg/kg/day s.c. osmotic pump, 10% oxygen, 10 or 21 days

CC(C)(C)COC(=O)CC1CC(c2ccc(O)c(F)c2)=NO1 (stereo not drawn) [ISO-92]
growth of cells cultured in normoxic conditions ([1]; CCL-210, 100 μM ISO-92, normoxia): no effect
hypoxia-induced cell proliferation ([1]; CCL-210, 1% oxygen, 24 hrs, vs vehicle DMSO): inhibited by ISO-92 in a dose-dependent manner; also recorded: able to inhibit hypoxia-driven proliferation; also recorded: inhibited proliferation in a dose-dependent manner
cytotoxicity / lactate dehydrogenase release into culture medium (CCL-210 cells): not cytotoxic; also recorded: nor did it cause accumulation of lactate dehydrogenase
increased proliferation of mif-/- fibroblasts induced by conditioned medium from hypoxic mif+/+ cells [2]: abrogated; also recorded: inhibitable; also recorded: inhibited
right ventricle hypertrophy (RV/S+LV) (C57BL6 mice; [3]): significantly reduced
right ventricular systolic pressure (RVSP), effect in words (C57BL6 mice; [3]): significantly reduced
vascular wall thickness (VascularWT %) / pulmonary vascular remodeling (C57BL6 mice; [3]): significantly reduced
right ventricular systolic pressure (C57BL6 mice; at 21 days hypoxia, normoxia 13.8±2.3, vehicle 20.2±1.4): 16.8±1.5 mm Hg
reduction of right ventricular systolic pressures (C57BL6 mice; at 21 days hypoxia, relative to vehicle and normoxia): approximately 53%
hypoxia-induced increase in brain glucose metabolism (18FDG images) (mouse brain; 10 days 10% hypoxia, ISO-92 via osmotic pump): blocked completely
semi-quantitative 18F-FDG uptake (SUV) of specific brain regions, median value (mouse brain; 10 days hypoxia, differences not statistically significant): lower in each case
performance in the clock maze task (working memory) (mice): completely normal performance
